Data reported in patent publication US20050239656A1, “Pyridine compounds or salts thereof and herbicides containing the same” (priority 2002, published 2005).

Tests used:
[1] = test system: green foxtail; assay: Test Example 1: foliage treatment, upland pot test; format: in vivo, Setaria viridis L.; settings: active ingredient 500 g/ha, observed 18th to 23rd day, 0 = non-treated, 100 = complete kill
[2] = test system: prickly sida; assay: Test Example 2: soil surface treatment, upland pot test; format: in vivo, Sida spinosa L.; settings: observed 20th to 28th day
In short: (§1)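 Pre-emergence: the soil surface was sprayed 1 day after sowing with wettable powder or emulsifiable concentrate diluted in water at 1,500 L/ha, at a predetermined active ingredient amount. Growth control was scored visually 20–28 days after treatment, 0 (untreated) to 100 (complete kill).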

[3] = test system: velvetleaf; assay: as above; format: in vivo, Abutilon theophrasti MEDIC.; settings: observed 20th to 28th day
In short: as §1

[4] = test system: corn; assay: Test Example 1: foliage treatment, upland pot test; format: in vivo, Zea mays L.; settings: crop, active ingredient 500 g/ha, observed 18th to 23rd day, 0 = non-treated, 100 = complete kill
In short: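 In this upland pot foliage test, corn plants at 2.1 to 3.2 leaf stages were sprayed by a small size sprayer. The spray was a conventionally formulated wettable powder or emulsifiable concentrate weighed to a set active ingredient amount, diluted in water at 500 L/ha, plus 0.1% (v/v) agricultural spreader. Visual assessment on days 18 to 23 gave growth controlling degree (%), where 0 equals untreated and 100 means complete kill.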

[5] = test system: japanese bulrush; assay: Test Example 3: paddy pot test, application under submerged conditions; format: in vivo, Scirpus juncoides; settings: submerged application at 0.5 leaf stage, visually observed 14 days after application, 0 = non-treated, 100 = complete kill
In short: (§2)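 Visual rating of growth control (0% equals untreated, 100% complete kill) made 14 days after treatment. Compound, formulated as wettable powder or emulsifiable concentrate and diluted in water, was pipetted under submerged conditions at predetermined active-ingredient doses once weeds reached 0.5-leaf (barnyardgrass, bulrush) or primary-leaf (wapato, from tubers) stage. Pots of greenhouse paddy soil held 3–4 cm flooding.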

[6] = test system: redroot pigweed; assay: Test Example 2: soil surface treatment, upland pot test; format: in vivo, Amaranthus retroflexus L.; settings: observed 20th to 28th day
In short: as §1

[7] = test system: barnyardgrass; assay: as above; format: in vivo, Echinochloa crus-galli L.; settings: observed 20th to 28th day
In short: as §1

[8] = test system: velvetleaf; assay: Test Example 1: foliage treatment, upland pot test; format: in vivo, Abutilon theophrasti MEDIC.; settings: active ingredient 500 g/ha, observed 18th to 23rd day, 0 = non-treated, 100 = complete kill
[9] = test system: rice; assay: Test Example 1: foliage treatment, upland pot test; format: in vivo, Oryza sativa L.; settings: crop, active ingredient 500 g/ha, observed 18th to 23rd day, 0 = non-treated, 100 = complete kill
In short: (§3)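 Foliage tx, upland soil pots; stages: wheat 1.3-2.4 L, rice 1.2-2.6 L, soybean 0.1-0.4 L, barnyardgrass 1.3-2.8 L. WP/EC diluted, 500 L/ha water + 0.1% (v/v) agricultural spreader, small sprayer. Visual rating d18–23, 0–100% control.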

[10] = test system: rice (var. Nihonbare); assay: Test Example 3: paddy pot test, transplanted rice; format: in vivo, Oryza sativa L.; settings: applied 4th day after transplantation, visually observed 21st day after application, 0 = non-treated, 100 = complete kill
In short: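 Visual crop-injury rating (0 = as untreated, 100 = complete kill, %) taken 21 days post-application. Treatment: formulated compound, water-diluted, pipetted into 3–4 cm flood water at a preset active-ingredient dose, 4 days after transplanting 2-leaf Nihonbare rice 3 cm deep in puddled paddy soil.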

[11] = test system: wheat; assay: Test Example 2: soil surface treatment, upland pot test; format: in vivo, Triticum spp.; settings: observed 20th to 28th day
In short: as §1

[12] = test system: prickly sida; assay: Test Example 1: foliage treatment, upland pot test; format: in vivo, Sida spinosa L.; settings: active ingredient 500 g/ha, observed 18th to 23rd day, 0 = non-treated, 100 = complete kill
[13] = test system: barnyardgrass; assay: Test Example 1: foliage treatment, upland pot test; format: in vivo, Echinochloa crus-galli L.; settings: active ingredient 500 g/ha, observed 18th to 23rd day, 0 = non-treated, 100 = complete kill
In short: as §3

[14] = test system: corn; assay: Test Example 2: soil surface treatment, upland pot test; format: in vivo, Zea mays L.; settings: observed 20th to 28th day
In short: as §1

[15] = test system: crabgrass; assay: as above; format: in vivo, Digitaria sanguinalis L.; settings: observed 20th to 28th day
In short: as §1

[16] = test system: wheat; assay: Test Example 1: foliage treatment, upland pot test; format: in vivo, Triticum spp.; settings: crop, active ingredient 500 g/ha, observed 18th to 23rd day, 0 = non-treated, 100 = complete kill
In short: as §3

[17] = test system: green foxtail; assay: Test Example 2: soil surface treatment, upland pot test; format: in vivo, Setaria viridis L.; settings: observed 20th to 28th day
In short: as §1

[18] = test system: crabgrass; assay: Test Example 1: foliage treatment, upland pot test; format: in vivo, Digitaria sanguinalis L.; settings: active ingredient 500 g/ha, observed 18th to 23rd day, 0 = non-treated, 100 = complete kill
[19] = test system: soybean; assay: Test Example 1: foliage treatment, upland pot test; format: in vivo, Glycine max Merr.; settings: crop, active ingredient 500 g/ha, observed 18th to 23rd day, 0 = non-treated, 100 = complete kill
In short: as §3

[20] = test system: barnyardgrass; assay: Test Example 3: paddy pot test, application under submerged conditions; format: in vivo, Echinochloa crus-galli L.; settings: submerged application at 0.5 leaf stage, visually observed 14 days after application, 0 = non-treated, 100 = complete kill
In short: as §2

[21] = test system: redroot pigweed; assay: Test Example 1: foliage treatment, upland pot test; format: in vivo, Amaranthus retroflexus L.; settings: active ingredient 500 g/ha, observed 18th to 23rd day, 0 = non-treated, 100 = complete kill
[22] = test system: rice; assay: Test Example 2: soil surface treatment, upland pot test; format: in vivo, Oryza sativa L.; settings: observed 20th to 28th day
In short: as §1

[23] = test system: soybean; assay: as above; format: in vivo, Glycine max Merr.; settings: observed 20th to 28th day
In short: as §1

CC(C)C(c1cnccc1C(F)(F)F)N(C)S(=O)(=O)c1ccc(Cl)cc1 (racemic) [I-125]
Growth controlling degree (%) Green foxtail [1]: 70%
Growth controlling degree (%) Prickly sida ([2]; active ingredient 500 g/ha): 80%
Growth controlling degree (%) Velvetleaf ([3]; active ingredient 500 g/ha): 70%
Growth controlling degree (%) Corn [4]: 60%
Growth controlling degree (%) Japanese bulrush ([5]; active ingredient 250 g/ha): 70%
Growth controlling degree (%) Redroot pigweed ([6]; active ingredient 500 g/ha): 50%
Growth controlling degree (%) Barnyardgrass ([7]; active ingredient 500 g/ha): 100%
Growth controlling degree (%) Velvetleaf [8]: 70%
Growth controlling degree (%) Rice [9]: 40%
Growth controlling degree (%) Rice ([10]; active ingredient 250 g/ha): 10%
Growth controlling degree (%) wheat ([11]; active ingredient 500 g/ha): 20%
Growth controlling degree (%) Prickly sida [12]: 80%
Growth controlling degree (%) Barnyardgrass [13]: 70%
Growth controlling degree (%) Corn ([14]; active ingredient 500 g/ha): 10%
Growth controlling degree (%) Crabgrass ([15]; active ingredient 500 g/ha): 100%
Growth controlling degree (%) wheat [16]: 10%
Growth controlling degree (%) Green foxtail ([17]; active ingredient 500 g/ha): 100%
Growth controlling degree (%) Crabgrass [18]: 95%
Growth controlling degree (%) Soybean [19]: 80%
Growth controlling degree (%) Barnyardgrass ([20]; active ingredient 250 g/ha): 100%
Growth controlling degree (%) Redroot pigweed [21]: 60%
Growth controlling degree (%) Rice ([22]; active ingredient 500 g/ha): 30%
Growth controlling degree (%) Soyabean ([23]; active ingredient 500 g/ha): 10%

CC(C)C(c1cnccc1C(F)(F)F)N(C)S(=O)(=O)c1ccc(F)cc1F (racemic) [I-127]
Growth controlling degree (%) Green foxtail [1]: 50%
Growth controlling degree (%) Prickly sida ([2]; active ingredient 500 g/ha): 50%
Growth controlling degree (%) Velvetleaf ([3]; active ingredient 500 g/ha): 40%
Growth controlling degree (%) Corn [4]: 40%
Growth controlling degree (%) Japanese bulrush ([5]; active ingredient 250 g/ha): 70%
Growth controlling degree (%) Redroot pigweed ([6]; active ingredient 500 g/ha): 60%
Growth controlling degree (%) Barnyardgrass ([7]; active ingredient 500 g/ha): 100%
Growth controlling degree (%) Velvetleaf [8]: 60%
Growth controlling degree (%) Rice [9]: 30%
Growth controlling degree (%) Rice ([10]; active ingredient 250 g/ha): 0%
Growth controlling degree (%) wheat ([11]; active ingredient 500 g/ha): 30%
Growth controlling degree (%) Prickly sida [12]: 70%
Growth controlling degree (%) Barnyardgrass [13]: 70%
Growth controlling degree (%) Corn ([14]; active ingredient 500 g/ha): 10%
Growth controlling degree (%) Crabgrass ([15]; active ingredient 500 g/ha): 90%
Growth controlling degree (%) wheat [16]: 0%
Growth controlling degree (%) Green foxtail ([17]; active ingredient 500 g/ha): 100%
Growth controlling degree (%) Crabgrass [18]: 95%
Growth controlling degree (%) Soybean [19]: 60%
Growth controlling degree (%) Barnyardgrass ([20]; active ingredient 250 g/ha): 100%
Growth controlling degree (%) Redroot pigweed [21]: 20%
Growth controlling degree (%) Rice ([22]; active ingredient 500 g/ha): 20%
Growth controlling degree (%) Soyabean ([23]; active ingredient 500 g/ha): 10%

CC(C)C(c1cnccc1C(F)(F)F)N(C)C(=O)Cc1ccc(OC(F)F)cc1 (racemic) [I-128]
Growth controlling degree (%) Green foxtail [1]: 50%
Growth controlling degree (%) Prickly sida ([2]; active ingredient 500 g/ha): 80%
Growth controlling degree (%) Velvetleaf ([3]; active ingredient 500 g/ha): 60%
Growth controlling degree (%) Corn [4]: 70%
Growth controlling degree (%) Japanese bulrush ([5]; active ingredient 250 g/ha): 90%
Growth controlling degree (%) Redroot pigweed ([6]; active ingredient 500 g/ha): 30%
Growth controlling degree (%) Barnyardgrass ([7]; active ingredient 500 g/ha): 100%
Growth controlling degree (%) Velvetleaf [8]: 80%
Growth controlling degree (%) Rice [9]: 50%
Growth controlling degree (%) Rice ([10]; active ingredient 250 g/ha): 0%
Growth controlling degree (%) wheat ([11]; active ingredient 500 g/ha): 30%
Growth controlling degree (%) Prickly sida [12]: 80%
Growth controlling degree (%) Barnyardgrass [13]: 70%
Growth controlling degree (%) Corn ([14]; active ingredient 500 g/ha): 50%
Growth controlling degree (%) Crabgrass ([15]; active ingredient 500 g/ha): 100%
Growth controlling degree (%) wheat [16]: 30%
Growth controlling degree (%) Green foxtail ([17]; active ingredient 500 g/ha): 100%
Growth controlling degree (%) Crabgrass [18]: 95%
Growth controlling degree (%) Soybean [19]: 80%
Growth controlling degree (%) Barnyardgrass ([20]; active ingredient 250 g/ha): 100%
Growth controlling degree (%) Redroot pigweed [21]: 60%
Growth controlling degree (%) Rice ([22]; active ingredient 500 g/ha): 40%
Growth controlling degree (%) Soyabean ([23]; active ingredient 500 g/ha): 20%

Cc1ccc(S(=O)(=O)N(C)C(c2cnccc2C(F)(F)F)C(C)C)cc1 (racemic) [I-130]
Growth controlling degree (%) Green foxtail [1]: 60%
Growth controlling degree (%) Prickly sida ([2]; active ingredient 250 g/ha): 50%
Growth controlling degree (%) Velvetleaf ([3]; active ingredient 250 g/ha): 10%
Growth controlling degree (%) Corn [4]: 70%
Growth controlling degree (%) Japanese bulrush ([5]; active ingredient 125 g/ha): 70%
Growth controlling degree (%) Redroot pigweed ([6]; active ingredient 250 g/ha): 10%
Growth controlling degree (%) Barnyardgrass ([7]; active ingredient 250 g/ha): 100%
Growth controlling degree (%) Velvetleaf [8]: 70%
Growth controlling degree (%) Rice [9]: 40%
Growth controlling degree (%) Rice ([10]; active ingredient 125 g/ha): 10%
Growth controlling degree (%) wheat ([11]; active ingredient 250 g/ha): 20%
Growth controlling degree (%) Prickly sida [12]: 80%
Growth controlling degree (%) Barnyardgrass [13]: 70%
Growth controlling degree (%) Corn ([14]; active ingredient 250 g/ha): 20%
Growth controlling degree (%) Crabgrass ([15]; active ingredient 250 g/ha): 98%
Growth controlling degree (%) wheat [16]: 10%
Growth controlling degree (%) Green foxtail ([17]; active ingredient 250 g/ha): 95%
Growth controlling degree (%) Crabgrass [18]: 80%
Growth controlling degree (%) Soybean [19]: 40%
Growth controlling degree (%) Barnyardgrass ([20]; active ingredient 125 g/ha): 100%
Growth controlling degree (%) Redroot pigweed [21]: 70%
Growth controlling degree (%) Rice ([22]; active ingredient 250 g/ha): 40%
Growth controlling degree (%) Soyabean ([23]; active ingredient 250 g/ha): 10%
